Measured values as given in patent US20060211698A1, “Bicyclic heteroaryl derivatives for treating viruses” (Genelabs, Inc., priority 2005, published 2006).

Target: T1, HCV-NS5b (Hepatitis C virus genotype 1b, UniProt Q9WMX2)
T1 construct: The cloned fragment was missing the C terminus 21 amino acid residues; (His)6 (C); made in house; host or cells: XL-1 cells (E. coli)
Assay: HCV-NS5b Enzyme Assay
Type: biochemical
Details: 1 μM test compound; incorporation of [3H]-UTP, 37° C., 2 hours
Method in brief: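 The NS5B construct lacks its C-terminal 21 residues, carries a C-terminal His6 tag and was expressed in E. coli. [^3H]-UTP incorporation on a biotinylated HCV heteropolymeric template (10 ng/μL) with 10 μM each NTP, pH 7.5, 5 mM MgCl2 and 5% DMSO ran 2 h at 37° C and was read by SPA scintillation. IC50s came from 10-point 2-fold series starting at 50 or 2 μM.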

SMILES	inhibition at 1 µM
COc1ccc(-c2ccc(Cl)cc2)c(-c2ccc3cc(-c4[nH]c5cc(C(=O)O)ccc5c4C4CCCCC4)ccc3n2)c1 [Compound 200, 2-[2-(4′-chloro-4-methoxy-biphenyl-2-yl)-quinolin-6-yl]-3-cyclohexyl-1H-indole-6-carboxylic acid]	96.2%
Cc1ccnc(-c2ccc3cc(-c4c(C5CCCCC5)c5ccc(C(=O)O)cc5n4CC(=O)N4CCOCC4)ccc3n2)c1 [Compound 249, 3-Cyclohexyl-2-[2-(4-methyl-pyridin-2-yl)-quinolin-6-yl]-1-(2-morpholin-4-yl-2-oxo-ethyl)-1H-indole-6-carboxylic acid]	99.5%
O=C(O)c1ccc2c(C3CCCCC3)c(-c3ccc4nc(-c5ccccc5C(F)(F)F)ccc4c3)n(CC(=O)N3CCOCC3)c2c1 [Compound 267, 3-Cyclohexyl-1-(2-morpholin-4-yl-2-oxo-ethyl)-2-[2-(2-trifluoromethyl-phenyl)-quinolin-6-yl]-1H-indole-6-carboxylic acid]	94.6%
O=C(O)c1ccc2c(C3CCCCC3)c(-c3ccc4nc(-c5ccc(F)cc5)ccc4c3)n(CC(=O)N3CCOCC3)c2c1 [Compound 265, 3-Cyclohexyl-2-[2-(4-fluoro-phenyl)-quinolin-6-yl]-1-(2-morpholin-4-yl-2-oxo-ethyl)-1H-indole-6-carboxylic acid]	96.3%
Cc1nc(C)c(-c2ccc3cc(-c4c(C5CCCCC5)c5ccc(C#N)cc5n4CC(=O)N4CCOCC4)ccc3n2)s1 [Compound 243, 3-Cyclohexyl-2-[2-(2,4-dimethyl-thiazol-5-yl)-quinolin-6-yl]-1-(2-morpholin-4-yl-2-oxo-ethyl)-1H-indole-6-carbonitrile]	37.8%
Cc1nc(C)c(-c2ccc3cc(-c4c(C5CCCCC5)c5ccc(C(=O)NCCc6nnn[nH]6)cc5n4CC(=O)N4CCOCC4)ccc3n2)s1 [Compound 245, 3-Cyclohexyl-2-[2-(2,4-dimethyl-thiazol-5-yl)-quinolin-6-yl]-1-(2-morpholin-4-yl-2-oxo-ethyl)-1H-indole-6-carboxylic acid [2-(1H-tetrazol-5-yl)-ethyl]-amide]	91.3%
NC(=O)c1cc(-c2ccc3cc(-c4c(C5CCCCC5)c5ccc(C(=O)O)cc5n4CC(=O)N4CCOCC4)ccc3n2)ccc1O [Compound 207, 1-[N-morpholinocarbonylmethyl]-2-[2-(3-amido-4-hydroxy-phenyl)-quinolin-6-yl]-3-cyclohexyl-1H-indole-6-carboxylic acid]	95.7%
Cc1nc(C)c(-c2ccc3cc(-c4c(C5CCCCC5)c5ccc(C(=O)O)cc5n4CC(=O)O)ccc3n2)s1 [Compound 211, 1-[carboxymethyl]-2-[2-(2,4-dimethylthiazol-5-yl)-quinolin-6-yl]-3-cyclohexyl-1H-indole-6-carboxylic acid]	91%
Cc1csc(-c2ccc3cc(-c4c(C5CCCCC5)c5ccc(C(=O)O)cc5n4CC(=O)N4CCOCC4)ccc3n2)c1 [Compound 234, 3-Cyclohexyl-2-[2-(4-methyl-thiophen-2-yl)-quinolin-6-yl]-1-(2-morpholin-4-yl-2-oxo-ethyl)-1H-indole-6-carboxylic acid]	97.4%
O=C(O)c1ccc2c(C3CCCCC3)c(-c3ccc4nc(-c5c(F)cccc5F)ccc4c3)n(CC(=O)N3CCOCC3)c2c1 [Compound 259, 3-Cyclohexyl-2-[2-(2,6-difluoro-phenyl)-quinolin-6-yl]-1-(2-morpholin-4-yl-2-oxo-ethyl)-1H-indole-6-carboxylic acid]	95.8%
Cc1nc(C)c(-c2ccc3cc(-c4c(C5CCCCC5)c5ccc(C(=O)O)cc5n4CC(=O)NCCN4CCOCC4)ccc3n2)s1 [Compound 237, 3-Cyclohexyl-2-[2-(2,4-dimethyl-thiazol-5-yl)-quinolin-6-yl]-1-[(2-morpholin-4-yl-ethylcarbamoyl)-methyl]-1H-indole-6-carboxylic acid]	94.7%
O=C(O)c1ccc2c(C3CCCCC3)c(-c3ccc4nc(-c5cccc(OC(F)(F)F)c5)ccc4c3)n(CC(=O)N3CCOCC3)c2c1 [Compound 246, 3-Cyclohexyl-1-(2-morpholin-4-yl-2-oxo-ethyl)-2-[2-(3-trifluoromethoxy-phenyl)-quinolin-6-yl]-1H-indole-6-carboxylic acid]	96.9%
Cc1nc(C)c(-c2ccc3cc(-c4c(C5CCCCC5)c5ccc(C(=O)NS(C)(=O)=O)cc5n4CC(=O)N4CCOCC4)ccc3n2)s1 [Compound 240, N-[3-Cyclohexyl-2-[2-(2,4-dimethyl-thiazol-5-yl)-quinolin-6-yl]-1-(2-morpholin-4-yl-2-oxo-ethyl)-1H-indole-6-carbonyl]-methanesulfonamide]	97.7%

The remaining lines, values ahead:

inhibition at 1 µM	SMILES
101%	O=C(O)c1ccc2c(C3CCCCC3)c(-c3ccc4cc(-c5ccccc5)ccc4c3)n(CC(=O)N3CCOCC3)c2c1 [Compound 328, 3-Cyclohexyl-1-(2-morpholin-4-yl-2-oxo-ethyl)-2-(6-phenyl-naphthalen-2-yl)-1H-indole-6-carboxylic acid]
87.8%	Cc1nc(C)c(-c2ccc3cc(-c4c(C5CCCCC5)c5ccc(C(=O)O)cc5n4CC(=O)N4CCOCC4)cc(Br)c3n2)s1 [Compound 282, 2-[8-Bromo-2-(2,4-dimethyl-thiazol-5-yl)-quinolin-6-yl]-3-cyclohexyl-1-(2-morpholin-4-yl-2-oxo-ethyl)-1H-indole-6-carboxylic acid]
93.6%	CCOc1ncc(-c2ccc3cc(-c4c(C5CCCCC5)c5ccc(C(=O)O)cc5n4CC(=O)N4CCOCC4)ccc3n2)c(C)n1 [Compound 269, 3-Cyclohexyl-2-[2-(2-ethoxy-4-methyl-pyrimidin-5-yl)-quinolin-6-yl]-1-(2-morpholin-4-yl-2-oxo-ethyl)-1H-indole-6-carboxylic acid]
97.4%	N#Cc1ccc(-c2ccc(-c3c(C4CCCCC4)c4ccc(C(=O)O)cc4n3CC(=O)N3CCOCC3)cc2)cc1 [Compound 307, 2-(4′-Cyano-biphenyl-4-yl)-3-cyclohexyl-1-(2-morpholin-4-yl-2-oxo-ethyl)-1H-indole-6-carboxylic acid]
95.1%	Cc1nc(C)c(-c2ccc3cc(-c4[nH]c5cc(C(=O)O)ccc5c4C4CCCCC4)ccc3n2)s1 [Compound 333, 3-Cyclohexyl-2-[2-(2,4-dimethyl-thiazol-5-yl)-quinolin-6-yl]-1H-indole-6-carboxylic acid]
96.1%	Cc1nccnc1-c1ccc2cc(-c3c(C4CCCCC4)c4ccc(C(=O)O)cc4n3CC(=O)N3CCOCC3)ccc2n1 [Compound 268, 3-Cyclohexyl-2-[2-(3-methyl-pyrazin-2-yl)-quinolin-6-yl]-1-(2-morpholin-4-yl-2-oxo-ethyl)-1H-indole-6-carboxylic acid]
99.6%	Cc1ccccc1-c1ccc(-c2c(C3CCCCC3)c3ccc(C(=O)O)cc3n2CC(=O)N2CCOCC2)cc1 [Compound 313, 3-Cyclohexyl-2-(2′-methyl-biphenyl-4-yl)-1-(2-morpholin-4-yl-2-oxo-ethyl)-1H-indole-6-carboxylic acid]
97%	COc1ccc(-c2ccc(-c3c(C4CCCCC4)c4ccc(C(=O)O)cc4n3CC(=O)N3CCOCC3)cc2)cc1 [Compound 301, 3-Cyclohexyl-2-(4′-methoxy-biphenyl-4-yl)-1-(2-morpholin-4-yl-2-oxo-ethyl)-1H-indole-6-carboxylic acid]
98.7%	Cc1nc(C)c(-c2ccc3cc(-c4c(C5CCCCC5)c5ccc(C(=O)O)cc5n4Cc4ccc(C(=O)O)cc4)ccc3n2)s1 [Compound 292, 1-(4-Carboxy-benzyl)-3-cyclohexyl-2-[2-(2,4-dimethyl-thiazol-5-yl)-quinolin-6-yl]-1H-indole-6-carboxylic acid]
98.8%	COc1cccc(-c2ccc(-c3c(C4CCCCC4)c4ccc(C(=O)O)cc4n3CC(=O)N3CCOCC3)cc2)c1 [Compound 309, 3-Cyclohexyl-2-(3′-methoxy-biphenyl-4-yl)-1-(2-morpholin-4-yl-2-oxo-ethyl)-1H-indole-6-carboxylic acid]
